Source: patent publication US20230123334A1, “AMINO LIPID COMPOUND, PREPARATION METHOD THEREFOR, AND APPLICATION THEREOF” (SHENZHEN SHENXIN BIOTECHNOLOGY CO., LTD., priority 2020, published 2023)

Experiments:
HEK293 cells [1] = experiment: Preliminary screening as DNA vectors, GFP transfection of HEK293 cells; format: cell-based; settings: HEK293 cells; lipid/DOPE liposome with 75 ng plasmid DNA (psin-EGFP-IRES-Puro); number of cells expressing GFP divided by total number of nuclei (Hoechst)
How it was run: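 Lipid + DOPE liposomes (NaOAc, pH 5.6) complexed w/ 75 ng psin-EGFP-IRES-Puro, 30 min RT; added to 3-5×10^4 HEK293/well, 37° C. Hoechst 0.2 μg/mL at 20-24 h, imaged after further 20-24 h. Efficiency = GFP+ cells / total nuclei.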

HEK293 cells [2] = experiment: Preliminary screening as mRNA vectors, EGFP mRNA transfection of HEK293 cells; format: cell-based; settings: HEK293 cells, 96-well plates, EGFP mRNA 50 ng per well; percentage of GFP fluorescent cells relative to total number of cells (Hoechst)
How it was run: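 Each well of HEK293 cells received 50 ng of EGFP mRNA. Efficiency was expressed as percent GFP-expressing cells over Hoechst-defined total cell number.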

Compound	Absolute DNA transfection efficiency in HEK293 cells (HEK293 cells [1]) [%]	Absolute mRNA transfection efficiency in HEK293 cells (HEK293 cells [2]) [%]
CCCCCCCCCSc1nc(NCCCN2CCN(C)CC2)nc(SCCCCCCCCC)n1 [Compound S9S9D9]	19.3	19.3
CCCCCCCCCCCCCCCCCCNc1nc(NCCCCCCCCCCCCCCCC)nc(NCCN2CCCCC2)n1 [Compound N16N18D4]	0.6	1.8
CCCCCCCCCNc1nc(NCCCCCCCCC)nc(NCCN2CCN(C)CC2)n1 [Compound N9N9D5]	0.0	0.1
CCCCCCCCCCCCNc1nc(NCCCCCCCCCCC)nc(NCCN(CC)CC)n1 [Compound N11N12D7]	0.0	2.4
CCCCCCCCCCCCCCCNc1nc(NCCCCCCCC)nc(NCCN(CC)CC)n1 [Compound N8N15D7]	0.0	0.0
CCCCCCCCCCCCCNc1nc(NCCCCCCCCCCCCC)nc(NCCN(C)C)n1 [Compound N13N13D1]	1.5	0.4
CCCCCCCNc1nc(NCCCCCCC)nc(NCCN(CC)CC)n1 [Compound N7N7D7]	0.0	0.0
CCCCCCCCCCCNc1nc(NCCCCCCCCCCC)nc(NCC2CCN(C)CC2)n1 [Compound N11N11D10]	0.5	1.2
CCCCCCCCCCCCN(CCCCCCCCCCCC)c1nc(NCCCCCCCC)nc(NCCN(CC)CC)n1 [N8^2N12D7]	0.0	0.0
CCCCCCCCCCCNc1nc(NCCCCCCCCCCC)nc(NCCN2CCCC2)n1 [Compound N11N11D3]	1.8	1.4
CCCCCCCCCCCNc1nc(NCCCCCC)nc(NCCN2CCOCC2)n1 [Compound N6N11D2]	0.0	0.0
CCCCCCCCCNc1nc(NCCCCCC)nc(NCCN2CCN(C)CC2)n1 [Compound N6N9D5]	0.0	0.1
CCCCCCCCCCCCCCCNc1nc(NCCCCCC)nc(NCCN(CC)CC)n1 [Compound N6N15D7]	0.0	0.0
CCCCCCCCCCCCCCCNc1nc(NCCCCCCCCCCCCC)nc(NCCN2CCOCC2)n1 [Compound N13N15D2]	0.0	1.4
CCCCCCCCCCCCCCCCCCSc1nc(NCCN(C)C)nc(SCCCCCCCCCCCCCCC)n1 [Compound S15S18D1]	0.0	0.0
CCCCCCCCCNc1nc(NCCCCCC)nc(NCC2CCN(C)CC2)n1 [Compound N6N9D10]	0.0	0.3
CCCCCCCCCCCSc1nc(NCCN2CCN(C)CC2)nc(SCCCCCCCCCC)n1 [Compound S10S11D5]	8.4	61.1
CCCCCCCCCCCCCCCCCCNc1nc(NCCCCCCC)nc(NCCCN(C)C)n1 [Compound N7N18D6]	0.7	1.1
CCCCCCCCCCCCNc1nc(NCCCCCCCCCCCC)nc(NCCN2CCCCC2)n1 [Compound N12N12D4]	0.4	2.2
CCCCCCCCCCCCN(CCCCCCCCCCCC)c1nc(NCCCCCCCC)nc(NCCN2CCCC2)n1 [N8^2N12D3]	0.1	0.9
CCCCCCCCCCCCSc1nc(NCCN(C)C)nc(SCCCCCCCCCC)n1 [Compound S10S12D1]	6.6	0.0
CCCCCCCCCCCCCCSc1nc(NCCN2CCN(C)CC2)nc(SCCCCCCCCCC)n1 [Compound S10S14D5]	15.7	12.9
CCCCCCCCCCCCCCCCCCNc1nc(NCCCCCCCC)nc(NCCN(CC)CC)n1 [Compound N8N18D7]	2.7	9.3
CCCCCCCCCCCNc1nc(NCCCCCCCCC)nc(NCCN(C)C)n1 [Compound N9N11D1]	0.0	2.2

Compound	Absolute DNA transfection efficiency in HEK293 cells (HEK293 cells [1]) [%]	Absolute mRNA transfection efficiency in HEK293 cells (HEK293 cells [2]) [%]
CCCCCCCCCCCCCCSc1nc(NCCN(CC)CC)nc(SCCCCCCCCCCC)n1 [Compound S11S14D7]	2.9	0.7
CCCCCCCCCCCCNc1nc(NCCCCCCCCC)nc(NCCCN2CCOCC2)n1 [Compound N9N12D8]	0.0	0.0
CCCCCCCCCCCCCCCCSc1nc(NCCN2CCCC2)nc(SCCCCCCCCCCC)n1 [Compound S11S16D3]	6.2	0.7
CCCCCCCCCCCCCCSc1nc(NCCN2CCCCC2)nc(SCCCCCCCCCCC)n1 [Compound S11S14D4]	3.7	0.2
CCCCCCCCCCCCCCCCCCNc1nc(NCCCCCCCCCCCCCCC)nc(NCCN2CCCC2)n1 [Compound N15N18D3]	3.0	8.6
CCCCCCCCCCCCNc1nc(NCCCCCCCCCCCC)nc(NCCN(CC)CC)n1 [Compound N12N12D7]	0.1	0.6
CCCCCCCCCCCCN(CCCCCCCCCCCC)c1nc(NCCCCCCCCC)nc(NCCCN(C)C)n1 [N9^2N12D6]	0.3	0.8
CCCCCCCCCCCCCCCCCCSc1nc(NCCN(CC)CC)nc(SCCCCCCCCCCC)n1 [Compound S11S18D7]	3.6	1.1
CCCCCCCCCCCSc1nc(NCCCN2CCOCC2)nc(SCCCCCCCCCCC)n1 [Compound S11S11D8]	3.6	1.4
CCCCCCCCCCCCCNc1nc(NCCCCCCC)nc(NCCCN(C)C)n1 [Compound N7N13D6]	1.6	2.3
CCCCCCCCCCCCCCCSc1nc(NCCN(CC)CC)nc(SCCCCCCCCCCCCCC)n1 [Compound S14S15D7]	0.6	0.4
CCCCCCCCCCCCCCCCCCNc1nc(NCCCCCCCCCCCC)nc(NCCN2CCOCC2)n1 [Compound N12N18D2]	0.6	0.9
CCCCCCCCCCCCN(CCCCCCCCCCCC)c1nc(NCCCCCCCCC)nc(NCCCN2CCOCC2)n1 [N9^2N12D8]	0.0	0.3
CCCCCCCCCCCCCCCSc1nc(NCCCN2CCOCC2)nc(SCCCCCCCCCC)n1 [Compound S10S15D8]	15.2	11.1
CCCCCCCCCCCCCNc1nc(NCCCCCCCCCCCC)nc(NCCN2CCOCC2)n1 [Compound N12N13D2]	0.1	0.0
CCCCCCCCCCCCCCCCCCNc1nc(NCCCCCCCCCCCCCCCCCC)nc(NCCCN2CCN(C)CC2)n1 [Compound N18N18D9]	0.0	0.0
CCCCCCCCCCCCCCSc1nc(NCCN(C)C)nc(SCCCCCCCCCCCC)n1 [Compound S12S14D1]	0.6	0.0
CCCCCCCCCCCCCCCCCCSc1nc(NCCCN(C)C)nc(SCCCCCCCC)n1 [Compound S8S18D6]	8.2	19.1
CCCCCCCCCCCCCCCCNc1nc(NCCCN2CCN(C)CC2)nc(N(CCCCCCCCCCCC)CCCCCCCCCCCC)n1 [N16^2N12D9]	0.5	0.0
CCCCCCCCCCCNc1nc(NCCCCCC)nc(NCCN(CC)CC)n1 [Compound N6N11D7]	0.0	0.0
CCCCCCCCCCCCNc1nc(NCCCCCCCCCCCC)nc(NCCN2CCOCC2)n1 [Compound N12N12D2]	0.2	1.0
CCCCCCCCCCCCNc1nc(NCCCCCCCC)nc(NCCN2CCN(C)CC2)n1 [Compound N8N12D5]	0.6	0.9
CCCCCCCCCCCCCCCSc1nc(NCCN2CCOCC2)nc(SCCCCCCCCCCCCCCC)n1 [Compound S15S15D2]	0.0	0.0
CCCCCCCCCCSc1nc(NCCN2CCOCC2)nc(SCCCCCCCCCC)n1 [Compound S10S10D2]	4.0	0.4
